ChEMBL document CHEMBL1144507, “Synthesis and antifungal activity of (Z)-5-arylidenerhodanines” (2007)
Converted amounts (≈) assume the structure as drawn.

Key:
[1] = test system: Nannizzia gypsea; assay: Antifungal activity against Microsporum gypseum C115 after 48 hrs; type: functional
[2] = test system: Trichophyton rubrum; assay: Antifungal activity against Trichophyton rubrum C113 after 48 hrs; type: functional
[3] = test system: Trichophyton benhamiae; assay: Antifungal activity against Trichophyton mentagrophytes ATCC 9972 after 48 hrs; type: functional, Arthroderma benhamiae; conditions: ATCC 9972, 48 h
[4] = test system: Candida albicans; assay: Antifungal activity against Candida albicans ATCC 10231 after 48 hrs; type: functional; conditions: ATCC 10231, 48 h
[5] = test system: Saccharomyces cerevisiae; assay: Antifungal activity against Saccharomyces cerevisiae ATCC 9763 after 48 hrs; type: functional; conditions: ATCC 9763, 48 h
[6] = test system: Cryptococcus neoformans; assay: Antifungal activity against Cryptococcus neoformans ATCC 32264 after 48 hrs; type: functional; conditions: ATCC 32264, 48 h
[7] = test system: Aspergillus niger; assay: Antifungal activity against Aspergillus niger ATCC 9029 after 48 hrs; type: functional; conditions: ATCC 9029, 48 h
[8] = test system: Aspergillus fumigatus; assay: Antifungal activity against Aspergillus fumigatus ATCC 26934 after 48 hrs; type: functional; conditions: ATCC 26934, 48 h
[9] = test system: Aspergillus flavus; assay: Antifungal activity against Aspergillus flavus ATCC 9170 after 48 hrs; type: functional; conditions: ATCC 9170, 48 h

MIC [1]	MIC [2]	MIC [3]	MIC [4]	MIC [5]	MIC [6]	MIC [7]	MIC [8]	MIC [9]	Compound
> 250 µg/mL	> 250 µg/mL	> 250 µg/mL	> 250 µg/mL	250 µg/mL (≈ 833 µM)	62.5 µg/mL (≈ 208 µM)	> 250 µg/mL	> 250 µg/mL	> 250 µg/mL	O=C1NC(=S)S/C1=C\c1ccc(Br)cc1
> 250 µg/mL	> 250 µg/mL	> 250 µg/mL	> 250 µg/mL	> 250 µg/mL	> 250 µg/mL	> 250 µg/mL	> 250 µg/mL	> 250 µg/mL	COc1ccc(/C=C2\SC(=S)NC2=O)cc1
